Test results reported in US9980979B2, “Compounds and methods for enhancing erythropoiesis” (NATIONAL YANG-MING UNIVERSITY, priority 2008, dated 2018).

Columns and labels:
[1] = test system: hepatocyte growth factor (HGF); assay: liver expression of HGF in cisplatin-induced acute renal failure animal model (PCR); type: in vivo, mouse; details: 10~90 mg/Kg/day, day 28; FIG. 10
Description: (§1) The effects of Compound A treatment on cisplatin-induced acute renal failure animal model were investigated. C57BL/6JNarl mice (8-week-old) were purchased from the National Laboratory Animal Center (NLAC, Taiwan). Cisplatin (Sigma-Aldrich) was dissolved in normal saline (0.9% (w/v) sodium chloride, Sigma-Aldrich) at a concentration of 1 mg/ml, and injected into mice intraperitoneally (i.p.) according to the following schedule: day 1, 7 mg/kg; day 5, 6 mg/kg; and day 9, 6 mg/kg. For cisplatin-untreated normal mice group, normal saline injections of corresponding volumes were given i.p. in parallel. At day 13, serum samples were collected and blood urea nitrogen (BUN) contents were assayed. […]
(§2) At the end of the experiments described in EXAMPLE 6 (i.e., day 28), mice were sacrificed, kidney and liver tissues were removed, and bone marrow cells were isolated. […] The reverse-transcribed cDNA samples were analyzed by PCR using ABI GeneAmp™ system 2700 (Applied Biosystems) and the SYBR Green Master Mix kit (Applied Biosystems) using primers targeting toward mouse glyceraldehyde 3-phosphate dehydrogenase (GAPDH) (SEQ ID NOs: 5 and 6), erythropoietin (Epo) (SEQ ID NOs: 3 and 4) and hepatocyte growth factor (HGF) (SEQ ID NOs: 7 and 8) (Table 1). Results were expressed as relative index±S.E. (n=5˜6). […]

[2] = test system: erythropoietin (Epo); assay: liver expression of Epo in cisplatin-induced acute renal failure animal model (PCR); type: in vivo, mouse; details: 30~90 mg/kg/day, day 28, versus untreated control group; FIG. 9
Description: as §1, §2

[3] = test system: erythropoietin (Epo); assay: Epo expression in kidney slices (RT-PCR); type: cell-based, mouse; details: 0.6-100 μg/ml, 16 hr, versus 0 μg/ml, FIG. 3
Description: C57BL/6JNarl mice, 8-10 weeks of age, were purchased from the National Laboratory Animal Center (NLAC, Taiwan). The kidney slices of mice were prepared as previously described with modifications (Parrish et al., 1995, Obatomi et al., 1998 and De Kanter et al., 1999). Briefly, mice were sacrificed by cervical dislocation and the kidneys were excised and immediately kept in gassed (95% O2 and 5% CO2) ice-cold sterile Krebs-HEPES buffer (pH 7.4) containing 20 mM HEPES (USB), 128 mM sodium chloride (Sigma-Aldrich), 2.5 mM potassium chloride (Sigma-Aldrich), 2.7 mM calcium chloride (Sigma-Aldrich), 1 mM magnesium chloride (Sigma-Aldrich) and 16 mM D-glucose (Sigma-Aldrich). […]
Kidney slices were preincubated in a 24-well plate (Falcon) containing 1.0 ml/well of gassed (95% O2, 5% CO2) fresh media (DMEM/F12 (Gibco/Invitrogen) containing 15 mM HEPES (USB), 20 mM sodium bicarbonate (Sigma-Aldrich)) and 5% (v/v) FBS (Gibco) for 90˜120 min at 37° C. in a 95% O2: 5% CO2 atmosphere chamber. […] The reverse-transcribed cDNA samples were analyzed by polymerase chain reaction (PCR) using ABI GeneAmp™ system 2700 (Applied Biosystems) with primers targeting toward mouse β-actin (SEQ ID NOs: 1 and 2) and erythropoietin (Epo) (SEQ ID NOs: 3 and 4) (Table 1). Results were compared with control group (0 μg/ml) and expressed as relative index.

With `OC[C@H]1O[C@@H](Oc2c(O)cc(O)cc2/C=C/c2ccc(O)cc2)[C@H](O)[C@@H](O)[C@@H]1O` [Compound A, 2,3,5,4′-tetrahydroxystilbene 2-O-β-D-glucopyranoside] the “expression of HGF in liver tissue (relative index)” value [1] was “enhanced the expression of HGF in liver tissue”, the “expression of Epo in liver (relative index)” value [2] was “significantly increased the expression of Epo in liver” and the “expression of Epo in kidney tissue (relative index)” value [3] was “increased the expression of Epo in kidney tissue”.
